The values below come from patent publication EP0981626B1, “FUNGICIDAL TEST METHOD” (Bayer CropScience Limited, priority 1997, dated 1998).

For assay [1], the system named is recombinant IPMDH (3-isopropylmalate dehydrogenase). As to the kind of experiment: biochemical screen for inhibitors of recombinant IPMDH (spectrometric NADH assay at 340 nm). Set-up: species or system Septoria nodorum. The following applies: buffer as control; for % inhibition at 3.3 ppm: first test; for % inhibition at 3.3 ppm, Repeat: repeat test. How it is done:
The recombinant IPMDH was used in a biochemical screen for inhibitors of 3-isopropylmalate dehydrogenase as follows. The assay was originally described by Parsons in 1969 (Purification and properties of β-IPMD, Parsons et al., Journal of Biological Chemistry, 244, (4), 996-1003. It is an spectrometric assay, based on the reduction of coenzyme […] measured at 340 nm. Prior to any assay the rate of production of a given unit of β-NADH was determined and only the rate of the initial linear fraction of the progress curve was taken for the evaluated assay. The reagents for the assay are: the enzyme 3-Isopropyl malate dehydrogenase, KH2PO4, MnCl2, β-NAD (nicotinamide adenine dinucleotide) and the substrate isopropylmalate. […] The mixture is incubated for two minutes at 25°C and the reaction is started by adding 140µl buffer containing the substrate IPM, KH2PO4, MnCl2, β-NAD at pH8. The rate of the increase β-NADH is monitored each minute and five data points are collected. The inhibition of the potential inhibitors are expressed in %-inhibition using buffer as a control. […] Tabulated below are a selection of compounds which gave a significant inhibition of recombinant IPMDH. These compounds were also able to inhibit Septoria nodorum in vitro. […] Approximately 10^5 conidia of Septoria nodorum BS171 were inoculated to Cz medium with the compounds and the effect on fungal growth assessed after six days.

Assay [2] concerns Septoria nodorum (BS171). As to the kind of experiment: in vitro inhibition of fungal growth in Cz medium. It is filed as cell-based. The following applies: Parastagonospora nodorum, 144 h; tested at 10, 25, 50, 75, 100, 150, 200 and 250 ppm in Cz medium; growth assessed after six days. The source says:
Tabulated below are a selection of compounds which gave a significant inhibition of recombinant IPMDH. These compounds were also able to inhibit Septoria nodorum in vitro. […] Approximately 10^5 conidia of Septoria nodorum BS171 were inoculated to Cz medium with the compounds and the effect on fungal growth assessed after six days.

Assay [3] relates to Phytophthora infestans. In kind it is in vivo. To be noted: 500 ppm; late tomato or potato blight; score = % control class.
Assay [4] deals with Plasmopara viticola. As to the kind of experiment: in vivo fungicidal activity on test plants, visually estimated infection.
Assay [5] has as its system Erysiphe cichoracearum. The assay is described as above. To be noted: 500 ppm.
Where [6] appears, read: 125 ppm, vine downy mildew, score = % control class.
Where [7] appears, read: cucumber powdery mildew, score = % control class.

A value given as a limit tells only on which side of the number the result lay.

The % inhibition is the drop in the measured response relative to a control, in per cent. The term MIC denotes the least concentration at which growth counts as inhibited. Turning to `O=C(Oc1ccccc1)n1c(C(F)(F)F)nc2cc(Br)c(Cl)cc21` [Compound 1, phenyl 5-bromo-6-chloro-2-trifluoromethyl-benzimidazole-1-carboxylate], the “% inhibition at 3.3 ppm” value in assay [1] is 33%. Moreover, the “% inhibition at 3.3 ppm, Repeat” value in assay [1] was determined as 56%. Also, the MIC in assay [2] is 100 to 150 µg/mL. For the same compound, the Score in assay [3] is 7 (85-94); in assay [4] (setting [6]), 5 (@125 ppm) (65-74); in assay [5] (setting [7]), 6 (75-84).
For the compound `N#Cc1sc2c(=O)c3ccccc3c(=O)c=2sc1C#N` [Compound 4, 5,10-dioxo-5,10-dihydronaphtho-[2,3-b][1,4]dithiine-2,3-dicarbonitrile], in assay [1], the “% inhibition at 3.3 ppm” value is given as 41%. Further, in assay [1], the “% inhibition at 3.3 ppm, Repeat” value is listed as 66%. In addition, the MIC in assay [2] is 0 to 10 µg/mL. The Score in assay [3] was 7 (85-94); in assay [4] (125 ppm) it was 7 (@125 ppm) (key: 0-20; 1: 20-34; 2: 35-44; 3: 45-54; 55-64; 65-74; 6: 75-84; 7: 85-94; 8: 95-100); in assay [5] it was 0 (key: 0-20; 1: 20-34; 2: 35-44; 3: 45-54; 55-64; 65-74; 6: 75-84; 7: 85-94; 8: 95-100).
Consider `O=C(Oc1ccccc1)n1c(C(F)(F)F)nc2c(Br)c(Br)c(Br)cc21` [Compound 2, phenyl 4,5,6-tribromo-2-trifluoromethyl-benzimidazole-1-carboxylate], for which, in assay [1], the “% inhibition at 3.3 ppm” value is 33%. Moreover, in assay [1], the “% inhibition at 3.3 ppm, Repeat” value came out at 42%. In assay [2], the MIC is above 250 µg/mL. In addition, the values for the Score in assay [3], in assay [4] (setting [6]) and in assay [5] (setting [7]) were 6 (75-84), 6 (@125 ppm) (75-84) and 7 (85-94), respectively.
For `CC(C)CCC(C)OC(=O)n1c(C(F)(F)F)nc2c(Br)c(Br)c(Br)cc21` (centres unmarked) [Compound 3, 1,4-dimethylpentyl 4,5,6-tribromo-2-trifluoromethyl-benzimidazole-1-carboxylate], in assay [1], the “% inhibition at 3.3 ppm” value was determined as 57% and the “% inhibition at 3.3 ppm, Repeat” value turned out to be 20%. Moreover, in assay [2], the MIC lay in the range of 100 to 150 µg/mL. Also, the Score in assay [4] (500 ppm, vine downy mildew, score = % control class) is listed as 8 (95-100). For the same compound, in assay [5] (setting [7]), the Score was 8 (95-100).
